For two compounds, MIC results are on record in patent publication US7179805B2, “7-amino alkylidenyl-heterocyclic quinolones and naphthyridones” (Janssen Pharmaceutica N.V., priority 2003, dated 2007).

Test [1] deals with Streptococcus pneumoniae ATCC 49619. Briefly: MIC, microdilution broth method (NCCLS). Particulars: ATCC49619; organism E: Streptococcus pneumoniae ATCC 49619; 35° C., 16–20 hours. Format: cell-based. Here is the method: (§1) Minimal inhibitory concentration (MIC) has been an indicator of in vitro antibacterial activity widely used in the art. The in vitro antimicrobial activity of the compounds was determined by the microdilution broth method following the test method from the National Committee for Clinical Laboratory Standards (NCCLS). This method is described in the NCCLS Document M7-A4, Vol.17, No.2, “Methods for Dilution Antimicrobial Susceptibility Test for Bacteria that Grow Aerobically—Fourth Edition”, which is incorporated herein by reference.
(§2) In this method two-fold serial dilutions of drug in cation adjusted Mueller-Hinton broth are added to wells in microdilution trays. The test organisms are prepared by adjusting the turbidity of actively growing broth cultures so that the final concentration of test organism after it is added to the wells is approximately 5×10^4 CFU/well.
(§3) Following inoculation of the microdilution trays, the trays are incubated at 35° C. for 16–20 hours and then read. […] The amount of growth in the wells containing the test compound is compared with the amount of growth in the growth-control wells (no test compound) used in each tray. As set forth in Table 5, compounds of the present invention were tested against a variety of pathogenic bacteria resulting in a range of activities depending on the organism tested.

The subject of test [2] is Staphylococcus aureus OC4172. Briefly: MIC, microdilution broth method (NCCLS). Format: cell-based. Particulars: organism A: Staphylococcus aureus OC4172; 35° C., 16–20 hours. How it is done: as §1, §2, §3

Usually MIC stands for the lowest concentration that inhibits growth of the organism. In test [1], `NCC(F)=C1CCN(c2cc3c(cc2F)c(=O)c(C(=O)O)cn3C2CC2)CC1.O=C(O)C(F)(F)F` [Compound 5, 7-[4-(2-Amino-1-fluoro-ethylidene)piperidin-1-yl]-1-cyclopropyl-6-fluoro-4-oxo-1,4-dihydroquinoline-3-carboxylic acid trifluoroacetic acid salt] registered an MIC of 0.06 µg/mL.

With `CNCC=C1CCN(c2c(F)cc3c(=O)c(C(=O)O)cn(C4CC4)c3c2OC)CC1.O=C(O)C(F)(F)F` [Compound 221, 1-Cyclopropyl-6-fluoro-8-methoxy-7-[4-(2-methylaminoethylidene)piperidin-1-yl]-4-oxo-1,4-dihydroquinoline-3-carboxylic acid trifluoroacetic acid salt], the MIC in test [2] stood at 0.12 µg/mL; in test [1], 0.5 µg/mL.
